Reference: publication PMC11784145, “Efficacy and in vitro pharmacological assessment of novel N-hydroxypyridinediones as hepatitis B virus ribonuclease H inhibitors” (Antimicrobial Agents and Chemotherapy, 2024)

How the values were obtained:
[1] = test system: HBV replication (HBV plus-polarity DNA strand); experiment: HBV replication inhibition, strand preferential qPCR in hepDES19 cells; type: cell-based, hepatitis B virus; details: for EC50: 72 h exposure, HBV plus-polarity strand suppression, highest concentration tested 100 µM, mean ± SD, read-out: HepDES19 EC50
Description: HBV replication inhibition was measured in hepDES19 cells following 72 h compound exposure without compound replenishment. EC50 values were determined by HBV plus-polarity strand suppression using a strand preferential qPCR assay, as described previously ([28]). Three or more replicate values were obtained on different days.

[2] = Solubility limit, turbidimetric assay; type: physicochemical; details: for Average Sol (solubility limit) / Sol 1 (solubility limit) / Sol 2 (solubility limit) / Sol 3 (solubility limit) / Sol 4 (solubility limit): upper limit 200 µM
Description: Solubility limits were determined by a turbidimetric assay, as described ([27]), with the solubility limit being defined as the compound concentration where light scattering began to rise. Two or more replicate assays were performed for each compound at each pH on different days.

[3] = Parallel artificial membrane permeability assay (PAMPA); type: in vitro ADME
Description: Compound Papp values were determined by normalizing the experimental compound absorbance to the compounds’ absorbances at equilibrium, membrane porosity, buffer volume, and time (s). Two or more replicate assays were obtained on separate days for each pH.

[4] = target: T1, human ribonuclease H1 (huRNase H1) (Homo sapiens, UniProt O60930); experiment: Human RNase H1 inhibition, fluorescent biochemical assay; details: recombinant huRNase H1, RNA:DNA heteroduplex substrate
T1 construct: made in house; host or cells: Escherichia coli
T1 sequence (O60930 1-286): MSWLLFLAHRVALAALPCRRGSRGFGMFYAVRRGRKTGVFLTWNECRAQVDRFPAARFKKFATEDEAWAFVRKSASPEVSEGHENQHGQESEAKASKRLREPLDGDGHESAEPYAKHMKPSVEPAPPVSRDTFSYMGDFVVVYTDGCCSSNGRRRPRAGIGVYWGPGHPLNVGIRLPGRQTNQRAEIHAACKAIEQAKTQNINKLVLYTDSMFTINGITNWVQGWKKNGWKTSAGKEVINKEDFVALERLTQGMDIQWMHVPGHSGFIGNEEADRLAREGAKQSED
Description: Recombinant human ribonuclease H1 (huRNase H1) was expressed in Escherichia coli and purified by nickel affinity chromatography, as described previously ([30]). […] The heteroduplex substrate was prepared, as described by Ponzar et al. ([30]). Reactions were initiated by the addition of MgCl2 (5 mM final) and were performed on a Biotek Synergy HTX multi-mode plate reader at 28°C.
Maximum rates of fluorescence increase were calculated using the Biotek Gen5 v3.15 software and percentage activity was determined for each compound concentration by subtracting rates from no enzyme reactions and normalizing to DMSO reactions. […] Reactions were performed at least three times on separate days.

HepDES19 cells = details: read-out: HepDES19 CC50; 72 h, MTS; highest concentration tested 100 µM; mean ± SD
Description: HepDES19 cells were plated on 96-well tissue culture-treated plates (Greiner) at 1.0 × 10^4 cells per well and incubated for 48 h. Cells were treated with titrated concentrations of compound or 1% DMSO vehicle for 72 h, and cellular viability was measured by 3-(4,5-dimethylthiazol-2-yl)−5-(3-carboxymethoxyphenyl)−2-(4-sulfophenyl)−2H-tetrazolium (MTS) assays, as described previously ([20]). […] Three or more replicate assays were done on different days.

Microsome stability = type: in vitro ADME, human
Description: Human liver microsomes (gender pooled, 50 individuals) were purchased from BioIVT and stored at −80°C until use. […] Reactions were initiated by addition of 1.2 mM NADPH. […] Microsomal proteins were pelleted at 4,000 × g and the supernatant was analyzed via LCMS/MS. […] The ln percent remaining values were plotted against time, the negative slope was taken (k), and compound half-life (t1/2) was determined using ln2/k. Intrinsic clearance (Clint [µL/min/mg]) was calculated by (V × ln2)/t1/2, where V is the incubation volume (µL) divided by the protein concentration in the reaction (mg) ([31]).

[5] = pH 5 (fed simulated intestinal fluid)
[6] = pH 6.5 (fasted simulated intestinal fluid)

Compound	HepDES19 SI (CC50/EC50) [1]	EC50 [1]	Average Sol (solubility limit) [2, 5]	Sol 1 (solubility limit) ([2]; pH 5, replicate 1)	Sol 2 (solubility limit) ([2]; pH 5, replicate 2)	Average Sol (solubility limit) [2, 6]	Sol 1 (solubility limit) ([2]; pH 6.5, replicate 1)	Sol 2 (solubility limit) ([2]; pH 6.5, replicate 2)	Average Sol (solubility limit) ([2]; pH 7.4 (DMEM-F12 with 10% FBS))	Sol 1 (solubility limit) ([2]; pH 7.4, replicate 1)	Sol 2 (solubility limit) ([2]; pH 7.4, replicate 2)	Sol 3 (solubility limit) ([2]; pH 7.4, replicate 3)	Avg Papp (PAMPA) ([3]; FeSSIF pH 5)	Interpretation (PAMPA Papp) ([3]; FeSSIF pH 5)	Papp 1 (PAMPA) ([3]; FeSSIF pH 5, replicate 1)	Avg Papp (PAMPA) ([3]; pH 7.4)	Interpretation (PAMPA Papp) ([3]; pH 7.4)	Papp 1 (PAMPA) ([3]; pH 7.4, replicate 1)	Papp 2 (PAMPA) ([3]; pH 7.4, replicate 2)	CC50 (HepDES19 cells)	further results
CC(=NOCc1ccc(OCc2ccccc2)cc1)c1c(C)cc(=O)n(O)c1O [Compound 1738]	6.53	7.49 ± 1.73 µM	> 200 µM	> 200 µM	> 200 µM	> 200 µM	> 200 µM	> 200 µM	167 µM	> 200 µM	100 µM	> 200 µM	25.9 ×10⁻⁶ cm/s	H (H: Papp > 1*10-6)	19.9 ×10⁻⁶ cm/s	5.42 ×10⁻⁶ cm/s	H (H: Papp > 1*10-6)	1.34 ×10⁻⁶ cm/s	9.64 ×10⁻⁶ cm/s	51.4 ± 19.2 µM	Papp 2 (PAMPA) ([3]; FeSSIF pH 5, replicate 2): 42.6 ×10⁻⁶ cm/s; Papp 3 (PAMPA) ([3]; FeSSIF pH 5, replicate 3): 3.74 ×10⁻⁶ cm/s; Papp 4 (PAMPA) ([3]; FeSSIF pH 5, replicate 4): 37.3 ×10⁻⁶ cm/s; Papp 3 (PAMPA) ([3]; pH 7.4, replicate 3): 9.47 ×10⁻⁶ cm/s; Papp 4 (PAMPA) ([3]; pH 7.4, replicate 4): 1.23 ×10⁻⁶ cm/s; IC50 [4]: 0.56 µM
COc1ccc(CON=C(C)c2c(C)cc(=O)n(O)c2O)cc1OC [Compound 1669]	80.6	1.13 ± 0.955 µM	> 200 µM	> 200 µM	> 200 µM	> 200 µM	> 200 µM	> 200 µM	> 200 µM	> 200 µM	> 200 µM	–	56.7 ×10⁻⁶ cm/s	H (H: Papp > 1*10-6)	57.9 ×10⁻⁶ cm/s	2.12 ×10⁻⁶ cm/s	H (H: Papp > 1*10-6)	2.03 ×10⁻⁶ cm/s	2.2 ×10⁻⁶ cm/s	91 ± 15.6 µM	Papp 2 (PAMPA) ([3]; FeSSIF pH 5, replicate 2): 55.5 ×10⁻⁶ cm/s
CC(C)c1nc(CN(C)C(=O)N[C@H](C(=O)N[C@@H](Cc2ccccc2)C[C@H](O)[C@H](Cc2ccccc2)NC(=O)OCc2cncs2)C(C)C)cs1 [Ritonavir, ritonavir, reference compound]	–	–	–	–	–	–	–	–	–	–	–	–	–	–	–	–	–	–	–	–	half-life at 1 µM (Microsome stability; both sexes, human liver microsomes, 1 µM compound, 30 min, NADPH): 23.3 min; microsomal CLint at 1 µM (Microsome stability; both sexes, human liver microsomes, 1 µM compound, 30 min, NADPH, read-out: Clearance (intrinsic clearance, Clint)): 45.2 µL/min/mg
CC(=NOCc1ccccc1C)c1c(C)cc(=O)n(O)c1O [Compound 1681]	25.2	3.97 ± 1.19 µM	> 200 µM	> 200 µM	> 200 µM	> 200 µM	> 200 µM	> 200 µM	106 µM	25 µM	100 µM	> 200 µM	30 ×10⁻⁶ cm/s	H (H: Papp > 1*10-6)	28.5 ×10⁻⁶ cm/s	4.73 ×10⁻⁶ cm/s	H (H: Papp > 1*10-6)	3.11 ×10⁻⁶ cm/s	9.39 ×10⁻⁶ cm/s	> 100 µM	Sol 4 (solubility limit) ([2]; pH 7.4, replicate 4): 100 µM; Papp 2 (PAMPA) ([3]; FeSSIF pH 5, replicate 2): 31.5 ×10⁻⁶ cm/s; Papp 3 (PAMPA) ([3]; pH 7.4, replicate 3): 4.69 ×10⁻⁶ cm/s; Papp 4 (PAMPA) ([3]; pH 7.4, replicate 4): 1.74 ×10⁻⁶ cm/s
CC(=NOCc1ccccc1Br)c1c(C)cc(=O)n(O)c1O [Compound 1718]	34.1	2 ± 1.63 µM	> 200 µM	> 200 µM	> 200 µM	138 µM	50 µM	100 µM	150 µM	50 µM	> 200 µM	> 200 µM	43.6 ×10⁻⁶ cm/s	H (H: Papp > 1*10-6)	37.3 ×10⁻⁶ cm/s	3.22 ×10⁻⁶ cm/s	H (H: Papp > 1*10-6)	3.31 ×10⁻⁶ cm/s	3.07 ×10⁻⁶ cm/s	80.8 ± 27.5 µM	Sol 3 (solubility limit) ([2]; pH 6.5, replicate 3): > 200 µM; Sol 4 (solubility limit) ([2]; pH 6.5, replicate 4): > 200 µM; Papp 2 (PAMPA) ([3]; FeSSIF pH 5, replicate 2): 50 ×10⁻⁶ cm/s; Papp 3 (PAMPA) ([3]; pH 7.4, replicate 3): 3.29 ×10⁻⁶ cm/s
CC(=NOCc1ccc(C(F)(F)F)cc1)c1c(C)cc(=O)n(O)c1O [Compound 1235]	26.3	1.87 ± 0.351 µM	> 200 µM	> 200 µM	> 200 µM	167 µM	100 µM	> 200 µM	> 200 µM	> 200 µM	> 200 µM	–	18 ×10⁻⁶ cm/s	H (H: Papp > 1*10-6)	22.7 ×10⁻⁶ cm/s	3.34 ×10⁻⁶ cm/s	H (H: Papp > 1*10-6)	2.29 ×10⁻⁶ cm/s	4.4 ×10⁻⁶ cm/s	49.2 ± 19.2 µM	Sol 3 (solubility limit) ([2]; pH 6.5, replicate 3): > 200 µM; Papp 2 (PAMPA) ([3]; FeSSIF pH 5, replicate 2): 13.2 ×10⁻⁶ cm/s; Clearance (intrinsic clearance, Clint) (Microsome stability; human, microsomes): 5.48 µL/min/mg; Half-life (Microsome stability; human, microsomes): >30 min
CC(=NOCc1ccc2ccccc2c1)c1c(C)cc(=O)n(O)c1O [Compound 1811]	71.3	1.4 ± 1.19 µM	50 µM	50 µM	50 µM	> 200 µM	> 200 µM	> 200 µM	167 µM	100 µM	> 200 µM	> 200 µM	–	–	–	3.57 ×10⁻⁶ cm/s	H (H: Papp > 1*10-6)	1.71 ×10⁻⁶ cm/s	3.97 ×10⁻⁶ cm/s	64.3 ± 25.2 µM	Solubility limit category ([2]; pH 5.0 (fed simulated intestinal fluid)): partially soluble (partially soluble (100–1 µM)); Papp 3 (PAMPA) ([3]; pH 7.4, replicate 3): 4.02 ×10⁻⁶ cm/s; Papp 4 (PAMPA) ([3]; pH 7.4, replicate 4): 4.6 ×10⁻⁶ cm/s
CC(=NOCc1ccc(Br)cc1)c1c(C)cc(=O)n(O)c1O [Compound 1717]	52.7	1.13 ± 0.186 µM	100 µM	100 µM	100 µM	50 µM	50 µM	50 µM	138 µM	50 µM	> 200 µM	> 200 µM	–	–	–	1.61 ×10⁻⁶ cm/s	H (H: Papp > 1*10-6)	1.61 ×10⁻⁶ cm/s	1.61 ×10⁻⁶ cm/s	76.7 ± 30.3 µM	Solubility limit category [2, 6]: partially soluble (partially soluble (100–1 µM)); Sol 3 (solubility limit) ([2]; pH 6.5, replicate 3): 50 µM; Sol 4 (solubility limit) ([2]; pH 7.4, replicate 4): 100 µM
